BindingDB's records for doi:10.1016/0960-894X(96)00045-5 (1996)

Target: 5-hydroxytryptamine receptor 1A (Rattus norvegicus) (UniProt P19327)
Assay: Inhibition of specific [3H]OH-DPAT binding at 5-hydroxytryptamine 1A receptor in rat hippocampal membranes

5-hydroxytryptamine receptor 1A (Rattus norvegicus), sequence (P19327 whole entry, looked up): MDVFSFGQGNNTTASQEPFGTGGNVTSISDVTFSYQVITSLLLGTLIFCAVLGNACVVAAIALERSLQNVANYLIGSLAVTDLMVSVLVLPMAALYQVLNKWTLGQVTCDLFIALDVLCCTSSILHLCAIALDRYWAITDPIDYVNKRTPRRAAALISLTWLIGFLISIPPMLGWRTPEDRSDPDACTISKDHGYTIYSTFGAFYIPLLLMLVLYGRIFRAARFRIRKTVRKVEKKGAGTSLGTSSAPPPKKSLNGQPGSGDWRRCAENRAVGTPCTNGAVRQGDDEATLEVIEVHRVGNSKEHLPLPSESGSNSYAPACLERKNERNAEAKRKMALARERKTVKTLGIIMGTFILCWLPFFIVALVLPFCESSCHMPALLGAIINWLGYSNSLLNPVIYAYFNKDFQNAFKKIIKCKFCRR

Ki | Structure (SMILES)
379 nM | CCCN(CCC)C[C@@H]1C[C@@H]1c1ccccc1O [2-((1S,2R)-2-Dipropylaminomethyl-cyclopropyl)-phenol]
506 nM | CCN(CC)C[C@H]1C[C@@H]1c1ccccc1O [2-((1S,2S)-2-Diethylaminomethyl-cyclopropyl)-phenol]
752 nM | CCCN(CCC)C[C@H]1C[C@@H]1c1ccccc1O [2-((1S,2S)-2-Dipropylaminomethyl-cyclopropyl)-phenol]
58 nM | CCCN(CCC)C[C@@H]1C[C@@H]1c1cccc(O)c1 [3-((1S,2R)-2-Dipropylaminomethyl-cyclopropyl)-phenol]
186 nM | CCCN(CCC)C[C@H]1C[C@@H]1c1cccc(O)c1 [3-((1S,2S)-2-Dipropylaminomethyl-cyclopropyl)-phenol]
431 nM | CCN(CC)C[C@H]1C[C@@H]1c1ccccc1OC [Diethyl-[(1S,2S)-2-(2-methoxy-phenyl)-cyclopropylmethyl]-amine]
998 nM | CCCN(CCC)C[C@@H]1C[C@@H]1c1ccccc1OC [[(1R,2S)-2-(2-Methoxy-phenyl)-cyclopropylmethyl]-dipropyl-amine]
388 nM | CCCN(CCC)C[C@@H]1C[C@@H]1c1cccc(OC)c1 [[(1R,2S)-2-(3-Methoxy-phenyl)-cyclopropylmethyl]-dipropyl-amine]
239 nM | CCCN(CCC)C[C@H]1C[C@@H]1c1ccccc1OC [[(1S,2S)-2-(2-Methoxy-phenyl)-cyclopropylmethyl]-dipropyl-amine]
310 nM | CCCN(CCC)C[C@H]1C[C@@H]1c1cccc(OC)c1 [[(1S,2S)-2-(3-Methoxy-phenyl)-cyclopropylmethyl]-dipropyl-amine]

Structure (SMILES) | Ki
CCCN(CCC)[C@@H]1C[C@@H]1c1ccccc1OC [[(1R,2R)-2-(2-Methoxy-phenyl)-cyclopropyl]-dipropyl-amine] | > 10000 nM
CCCN(CCC)[C@@H]1C[C@@H]1c1cccc(OC)c1 [[(1R,2R)-2-(3-Methoxy-phenyl)-cyclopropyl]-dipropyl-amine] | 736 nM
CCCN(CCC)[C@H]1C[C@@H]1c1ccccc1OC [[(1S,2R)-2-(2-Methoxy-phenyl)-cyclopropyl]-dipropyl-amine] | 17 nM
